Laboratory results from patent US9309263B2, “Fused multi-cyclic sulfone compounds as inhibitors of beta-secretase and methods of use thereof” (AMGEN INC., priority 2013, dated 2016).
Read-outs that look alike come from different tables or passages of the source.

Columns and labels:
[1] = target: Beta Secretase enzyme (BACE) (Homo sapiens, UniProt P56817); assay: In vitro enzymatic BACE FRET assay; format: biochemical; settings: read-out: BACE1 FRET assay IC50
Summary of the method: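 Enzyme (0.2 nM) pre-incubated 1 h with serially diluted inhibitors in 0.05 M acetate pH 4.2, 10% DMSO, 100 uM genapol. Reaction started with 50 nM fluorophore/quencher peptide FRET substrate, run 1 h, stopped with Tris to neutral pH. Fluorescence read at excitation 488 nm, […].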

[2] = test system: Aβ 40 in conditioned medium of cells stably expressing Amyloid Precursor Protein (APP); assay: In vitro BACE cell-based assay (Aβ 40 sandwich ELISA)
Summary of the method: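 APP-expressing cells, 24 h pre-culture in DMEM/10% FBS, treated 24 h with 10-point compound dilutions from 100 or 10 μM top, 0.1% DMSO final. Secreted Aβ40 quantified by sandwich ELISA (pAb40 capture, biotinylated 6E10 detection, europium TRF); IC50 from percent inhibition versus concentration.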

Cathepsin D (Cat D) = Cathepsin D (Cat D) (Homo sapiens, UniProt P07339); assay: In vitro enzymatic Cathepsin D (Cat D) FRET assay; format: biochemical
Chain of Cathepsin D (Cat D) (P07339 65-412, species assumed): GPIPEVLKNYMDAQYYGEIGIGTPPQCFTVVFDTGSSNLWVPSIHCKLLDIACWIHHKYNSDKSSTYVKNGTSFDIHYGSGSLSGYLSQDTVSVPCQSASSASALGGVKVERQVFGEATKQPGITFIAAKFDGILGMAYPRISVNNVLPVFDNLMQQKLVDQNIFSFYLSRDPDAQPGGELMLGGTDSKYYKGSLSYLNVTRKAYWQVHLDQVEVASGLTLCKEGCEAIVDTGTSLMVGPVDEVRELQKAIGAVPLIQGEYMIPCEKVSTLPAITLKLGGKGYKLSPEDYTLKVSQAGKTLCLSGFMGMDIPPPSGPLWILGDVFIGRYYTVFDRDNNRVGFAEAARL
Summary of the method: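 Recombinant CHO-expressed enzyme (9 nM) pre-incubated 1 h with serially diluted inhibitor in 0.05 M citrate pH 3.5, 10% DMSO final, 5 mM CHAPS. Reaction started with 20 nM FRET peptide substrate, run 1 h, stopped with Tris to neutral pH; fluorescence read at ex 500/em 580 nm.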

[3] = Homo sapiens, HEK293, HEK cell, average IC50
[4] = text summary referring to data in Table 2
[5] = average IC50, in vitro enzymatic BACE FRET assay
[6] = Homo sapiens, HEK293, average IC50, HEK cell assay, Aβ 40 readout
[7] = Cathepsin D FRET assay, read-out: CatD IC50

Chain of Beta Secretase enzyme (BACE) (P56817 46-501): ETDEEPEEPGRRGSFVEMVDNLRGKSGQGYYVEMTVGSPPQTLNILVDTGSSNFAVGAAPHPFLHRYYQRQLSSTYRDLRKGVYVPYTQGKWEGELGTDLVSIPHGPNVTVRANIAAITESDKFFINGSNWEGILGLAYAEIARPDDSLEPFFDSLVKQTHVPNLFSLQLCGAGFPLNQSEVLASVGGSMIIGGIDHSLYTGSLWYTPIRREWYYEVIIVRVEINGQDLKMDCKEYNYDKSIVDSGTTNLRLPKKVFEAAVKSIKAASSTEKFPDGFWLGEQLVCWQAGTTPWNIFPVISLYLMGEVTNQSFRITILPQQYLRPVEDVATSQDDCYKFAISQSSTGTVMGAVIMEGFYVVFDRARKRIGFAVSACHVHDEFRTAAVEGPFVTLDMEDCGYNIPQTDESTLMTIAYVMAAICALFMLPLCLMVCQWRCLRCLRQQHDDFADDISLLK

IC50 ([1]; average IC50) [µM]	IC50 ([2]; HEK cell, average IC50) [µM]	IC50 (Cathepsin D (Cat D); read-out: CatD IC50) [µM]	IC50 [2, 3] [µM]	IC50 (Cathepsin D (Cat D); [4]) [µM]	IC50 [1, 5] [µM]	IC50 [2, 6] [µM]	IC50 (Cathepsin D (Cat D); [7]) [µM]	Compound
0.059	0.184	> 400	–	–	–	–	–	COc1cnc(C(=O)Nc2cnc3c(c2)[C@@]2(C)N=C(N)C4(CCC4)S(=O)(=O)[C@@H]2CCO3)c(C)c1 [Example 64, N-((4a′R,11b′R)-2′-amino-1113′-methyl-4′,4′-dioxido-4a′,5′,6′,11b′-tetrahydrospiro[cyclobutane-1,3′-pyrido[3′,2′:6,7]oxepino[4,5-b][1,4]thiazin]-10′-yl)-5-methoxy-3-methyl-2-pyridinecarboxamide]
0.006	–	324	0.074	–	–	–	–	Cc1cc(Cl)cnc1C(=O)Nc1ccc2c(c1)[C@@]1(C)N=C(N)C(C)(C)S(=O)(=O)[C@]1(F)CCO2 [Example 65, N-((4aR,11bR)-2-amino-4a-fluoro-3,3,11b-trimethyl-4,4-dioxido-4a,5,6,11b-tetrahydro-3H-[1]benzoxepino[4,5-b][1,4]thiazin-10-yl)-5-chloro-3-methyl-2-pyridinecarboxamide]
0.008	–	269	0.089	–	–	–	–	CC1(C)C(N)=N[C@]2(C)c3cc(NC(=O)c4ccc(Cl)cn4)ccc3OCC[C@@]2(F)S1(=O)=O [Example 66, N-((4aR,11bR)-2-amino-4a-fluoro-3,3,11b-trimethyl-4,4-dioxido-4a,5,6,11b-tetrahydro-3H-[1]benzoxepino[4,5-b][1,4]thiazin-10-yl)-5-chloro-2-pyridinecarboxamide]
0.022	–	2920	0.115	> 1200	–	–	–	COc1cnc(C(=O)Nc2ccc3c(c2)[C@@]2(C)N=C(N)C(C)(C)S(=O)(=O)[C@]2(F)CCO3)cn1 [Example 67, N-((4aR,11bR)-2-amino-4a-fluoro-3,3,11b-trimethyl-4,4-dioxido-4a,5,6,11b-tetrahydro-3H-[1]benzoxepino[4,5-b][1,4]thiazin-10-yl)-5-methoxy-2-pyrazinecarboxamide]
0.011	–	1390	0.005	> 1200	–	–	–	COc1ccc(C(=O)Nc2ccc3c(c2)[C@@]2(C)N=C(N)C(C)(C)S(=O)(=O)[C@@H]2C[C@H](C)O3)nc1 [Example 72, N-((4aR,6S,11bR)-2-amino-3,3,6,11b-tetramethyl-4,4-dioxido-4a,5,6,11b-tetrahydro-3H-[1]benzoxepino[4,5-b][1,4]thiazin-10-yl)-5-methoxy-2-pyridinecarboxamide]
0.011	–	1390	0.004	> 1200	–	–	–	C[C@H]1C[C@@H]2[C@](C)(N=C(N)C(C)(C)S2(=O)=O)c2cc(NC(=O)c3ncc(C(F)(F)F)cc3Cl)ccc2O1 [Example 73, N-((4aR,6S,11bR)-2-amino-3,3,6,11b-tetramethyl-4,4-dioxido-4a,5,6,11b-tetrahydro-3H-[1]benzoxepino[4,5-b][1,4]thiazin-10-yl)-3-chloro-5-(trifluoromethyl)-2-pyridinecarboxamide]
0.003	–	871	0.007	–	–	–	–	C[C@H]1C[C@@H]2[C@](C)(N=C(N)C(C)(C)S2(=O)=O)c2cc(NC(=O)c3cnc(OCC(F)(F)F)cn3)ccc2O1 [Example 74, N-((4aR,6S,11bR)-2-amino-3,3,6,11b-tetramethyl-4,4-dioxido-4a,5,6,11b-tetrahydro-3H-[1]benzoxepino[4,5-b][1,4]thiazin-10-yl)-5-(2,2,2-trifluoroethoxy)-2-pyrazinecarboxamide]
0.004	–	217	0.061	–	–	–	–	C[C@H]1C[C@@H]2[C@](C)(N=C(N)C(C)(C)S2(=O)=O)c2cc(NC(=O)c3cnc(Cl)cn3)ccc2O1 [Example 75, N-((4aR,6S,11bR)-2-amino-3,3,6,11b-tetramethyl-4,4-dioxido-4a,5,6,11b-tetrahydro-3H-[1]benzoxepino[4,5-b][1,4]thiazin-10-yl)-5-chloro-2-pyrazinecarboxamide]
0.002	–	1050	0.0009	> 1200	–	–	–	C[C@H]1C[C@@H]2[C@](C)(N=C(N)C(C)(C)S2(=O)=O)c2cc(NC(=O)c3cnc(OCc4ncco4)cn3)ccc2O1 [Example 76, N-((4aR,6S,11bR)-2-amino-3,3,6,11b-tetramethyl-4,4-dioxido-4a,5,6,11b-tetrahydro-3H-[1]benzoxepino[4,5-b][1,4]thiazin-10-yl)-5-(1,3-oxazol-2-ylmethoxy)-2-pyrazinecarboxamide]
0.017	–	396	0.005	–	–	–	–	Cc1c(C(=O)Nc2ccc3c(c2)[C@@]2(C)N=C(N)C(C)(C)S(=O)(=O)[C@@H]2C[C@H](C)O3)nc2ccc(Cl)cn12 [Example 77, N-((4aR,6S,11bR)-2-amino-3,3,6,11b-tetramethyl-4,4-dioxido-4a,5,6,11b-tetrahydro-3H-[1]benzoxepino[4,5-b][1,4]thiazin-10-yl)-6-chloro-3-methylimidazo[1,2-a]pyridine-2-carboxamide]
0.007	–	407	0.026	–	–	–	–	Cc1cc(COc2cnc(C(=O)Nc3ccc4c(c3)[C@@]3(C)N=C(N)C(C)(C)S(=O)(=O)[C@@H]3C[C@H](C)O4)cn2)on1 [Example 78, N-((4aR,6S,11bR)-2-amino-3,3,6,11b-tetramethyl-4,4-dioxido-4a,5,6,11b-tetrahydro-3H-[1]benzoxepino[4,5-b][1,4]thiazin-10-yl)-5-((3-methyl-5-isoxazolyl)methoxy)-2-pyrazinecarboxamide]
0.005	–	841	0.016	–	–	–	–	CCCOc1cnc(C(=O)Nc2ccc3c(c2)[C@@]2(C)N=C(N)C(C)(C)S(=O)(=O)[C@@H]2C[C@H](C)O3)cn1 [Example 79, N-((4aR,6S,11bR)-2-amino-3,3,6,11b-tetramethyl-4,4-dioxido-4a,5,6,11b-tetrahydro-3H-[1]benzoxepino[4,5-b][1,4]thiazin-10-yl)-5-propoxy-2-pyrazinecarboxamide]
0.004	–	1490	0.001	> 1200	–	–	–	Cc1cnc(COc2cnc(C(=O)Nc3ccc4c(c3)[C@@]3(C)N=C(N)C(C)(C)S(=O)(=O)[C@@H]3C[C@H](C)O4)cn2)o1 [Example 80, N-((4aR,6S,11bR)-2-amino-3,3,6,11b-tetramethyl-4,4-dioxido-4a,5,6,11b-tetrahydro-3H-[1]benzoxepino[4,5-b][1,4]thiazin-10-yl)-5-((5-methyl-1,3-oxazol-2-yl)methoxy)-2-pyrazinecarboxamide]
–	–	–	–	> 1200	0.016	0.072	1310	C[C@H]1C[C@@H]2[C@](C)(N=C(N)C(C)(C)S2(=O)=O)c2cc(NC(=O)c3cnc(OCc4cnn(C)c4)cn3)ccc2O1 [Example 81, N-((4aR,6S,11bR)-2-amino-3,3,6,11b-tetramethyl-4,4-dioxido-4a,5,6,11b-tetrahydro-3H-[1]benzoxepino[4,5-b][1,4]thiazin-10-yl)-5-((1-methyl-1H-pyrazol-4-yl)methoxy)-2-pyrazinecarboxamide]
–	–	–	–	–	0.005	0.009	583	C[C@H]1C[C@@H]2[C@](C)(N=C(N)C(C)(C)S2(=O)=O)c2cc(NC(=O)c3cnc(OCc4ccn(C)n4)cn3)ccc2O1 [Example 82, N-((4aR,6S,11bR)-2-amino-3,3,6,11b-tetramethyl-4,4-dioxido-4a,5,6,11b-tetrahydro-3H-[1]benzoxepino[4,5-b][1,4]thiazin-10-yl)-5-((1-methyl-1H-pyrazol-3-yl)methoxy)-2-pyrazinecarboxamide]
–	–	–	–	> 800	0.006	0.009	954	Cc1cc(C#CC2CC2)cnc1C(=O)Nc1ccc2c(c1)[C@@]1(C)N=C(N)C(C)(C)S(=O)(=O)[C@@H]1CCO2 [Example 83, N-((4aR,11bR)-2-amino-3,3,11b-trimethyl-4,4-dioxido-4a,5,6,11b-tetrahydro-3H-[1]benzoxepino[4,5-b][1,4]thiazin-10-yl)-5-(cyclopropylethynyl)-3-methyl-2-pyridinecarboxamide]
–	–	–	–	–	0.002	0.008	279	Cc1cc(Cl)cnc1C(=O)Nc1ccc2c(c1)[C@@]1(C)N=C(N)C(C)(C)S(=O)(=O)[C@@]1(F)CCO2 [Example 87, N-((4aS,11bR)-2-amino-4a-fluoro-3,3,11b-trimethyl-4,4-dioxido-4a,5,6,11b-tetrahydro-3H-[1]benzoxepino[4,5-b][1,4]thiazin-10-yl)-5-chloro-3-methyl-2-pyridinecarboxamide]
–	–	–	–	–	0.01	0.044	745	CC1(C)C(N)=N[C@]2(C)c3cc(NC(=O)c4cnc(OCC5CC5)cn4)ccc3OCC[C@H]2S1(=O)=O [Example 88, N-((4aR,11bR)-2-amino-3,3,11b-trimethyl-4,4-dioxido-4a,5,6,11b-tetrahydro-3H-benzo[6,7]oxepino[4,5-b][1,4]thiazin-10-yl)-5-(cyclopropylmethoxy)pyrazine-2-carboxamide]
